What was measured:
[1] = system: mouse macrophage RAW264.7 cells; assay: Western blotting of caspase-3 and cleaved caspase-3; format: cell-based; settings: DHMBA 10 μM, 3 days
Method: FIG. 4 is an explanatory diagram describing that the marine factor 3,5-dihydroxy-4-methoxy benzyl alcohol (DHMBA) stimulates cell death in mouse macrophage RAW264.7 cells. RAW264.7 cells (1×10^5 cells/ml/well in a 24-well plate) were cultured in DMEM containing 10% FBS, 1% P/S, and 1% fungizone for 3 days until they reached subconfluence. The cells were cultured for another 24 hours (FIG. 4A) or 48 hours (FIG. 4B) in the control group (1% ethanol; 0 μM DHMBA as final concentration) and in the DHMBA-treated group (0.1, 1, 10, 100, or 1000 μM). […] After the culture, the number of cells attached to the dish was counted. […]
RAW264.7 cells (1×10^6 cells/10 ml of 100 mm dish) were cultured for 3 days in 10% FBS, 1% P/S (1% ethanol), or in the DHMBA-treated group (10 μM). […] Protein concentrations in the supernatants were measured using Bio-Rad Protein Assay Dye (Bio-Rad Laboratories, Inc., Hercules, CA, USA) with bovine serum albumin as a standard. […] After incubation, the membranes were further incubated with horseradish peroxidase-conjugated secondary antibodies (Santa Cruz Biotechnology Inc., cat. no. sc-2005 (mouse) or sc-2305 (rabbit); dilution 1:2000) for 60 min at room temperature, and protein bands were detected using chemiluminescence substrates (cat. no. 34577, Thermo Fisher Scientific Inc., Rockford, IL, USA) on X-ray films. […]

[2] = system: mouse macrophage RAW264.7 cells; assay: Measurement of cytokine production (ELISA); format: cell-based; settings: 5 hours
Method: RAW264.7 cells (1×10^5/ml per well in a 24-well plate) were cultured for 3 days in a DMEM culture medium without DHMBA until they reached subconfluence. After that, the cell culture was continued for another 5 hours in the control group (1% ethanol; DHMBA 0 μM as final concentration) and the DHMBA-treated group (0.1, 1, 10, 100, or 1000 μM) with or without LPS (100 ng/ml) in the cell culture medium. After the culture, the culture medium was collected, and the cytokine concentrations of TNF-α (FIG. 7A), IL-6 (FIG. 7B), […] (FIG. 7C), and PGE2 (FIG. 7D) in the culture medium were measured using an ELISA Kit. Data are presented as the mean±SD from a total of 8 wells in two plates using different cell preparations. *: Significant difference (P<0.001) versus the controls without DHMBA and LPS (white bars). #: Significant difference (P<0.001) versus the controls with LPS but without DHMBA. Statistical analysis was performed using 1-way ANOVA with Tukey-Kramer post-test.
RAW264.7 cells (1×10^5/ml per well) were cultured in a DMEM culture medium containing 10% FBS and 1% P/S using a 24-well plate for 3 days until they reached subconfluence. The cells were then cultured for another 5 hours in the control group (1% ethanol; DHMBA 0 μM as final concentration) and in the DHMBA-treated group (0.1, 1, 10, 100, or 1000 μM) with or without LPS (100 ng/ml). After the culture, the culture media were collected to measure cytokines. Then, the cells were detached from each culture dish to measure the cell number by the method described in “Cell count”. The concentrations of TNF-α, IL-6, IL-⊕, and PGE2 in the culture medium were measured using ELISA kits. For the measurement, kits for TNF-α (cat. no. BM), KHC301) and IL-16 (cat. no. BMS6002) were obtained from ThermoFisher Scientific (Waltham, MA, USA), and kits for IL-6 (cat. no. 583371) and PGE2 (cat. no. 514010) were purchased from Cayman Chemical (Ann Arbor, MI, USA). The amount of each cytokine produced was expressed as pictograms (pg) secreted into the culture medium (ml).

[3] = LPS 100 ng/ml, DHMBA 1, 10, 100 or 1000 μM

COc1c(O)cc(CO)cc1O [DHMBA, 3,5-dihydroxy-4-methoxybenzyl alcohol]
level of caspase-3 [1]: increased | level of cleaved caspase-3 [1]: increased | LPS-increased production of IL-1β [2, 3]: suppressed | LPS-increased production of IL-6 [2, 3]: suppressed | LPS-increased production of PGE2 [2, 3]: suppressed | LPS-increased production of TNF-α [2, 3]: suppressed | production of IL-6 ([2]; absence of LPS, DHMBA 100 or 1000 μM): suppressed
